US10266526B2, “Substituted 1,2,3-triazoles as SMYD inhibitors for treating cancer” (EPIZYME, INC., priority 2014, dated 2019)

Biological target: SMYD3 (Homo sapiens (Human), UniProt Q9H7B4)
Assay: SMYD3 biochemical assay (SMYD3 enzyme assay on MEKK2 protein substrate, 3H-SAM scintillation proximity assay)
Details: read-out: SMYD3 Biochem IC50
In short: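 Native full-length human SMYD3, expressed in E. coli, was preincubated with compound for 30 min at room temperature in 25 mM Tris-Cl pH 8.0, 1 mM TCEP, 0.005% BSG and 0.005% Tween 20. ³H-SAM plus GST-MEKK2 then started the reaction. It was stopped with unlabeled SAM (100 uM final), and methylated MEKK2 was read by SPA.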

Chain of SMYD3 (Q9H7B4 whole entry): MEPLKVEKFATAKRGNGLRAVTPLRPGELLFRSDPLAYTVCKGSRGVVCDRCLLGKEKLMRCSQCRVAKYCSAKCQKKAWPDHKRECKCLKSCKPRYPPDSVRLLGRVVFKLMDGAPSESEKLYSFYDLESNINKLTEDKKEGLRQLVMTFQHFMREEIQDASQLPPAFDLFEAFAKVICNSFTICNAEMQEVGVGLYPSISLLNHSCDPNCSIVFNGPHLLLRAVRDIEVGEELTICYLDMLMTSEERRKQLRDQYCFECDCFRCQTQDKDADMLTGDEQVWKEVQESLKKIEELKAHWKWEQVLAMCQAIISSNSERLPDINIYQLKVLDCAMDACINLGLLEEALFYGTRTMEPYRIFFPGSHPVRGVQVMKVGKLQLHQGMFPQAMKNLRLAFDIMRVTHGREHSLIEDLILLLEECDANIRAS

SMILES | IC50
Cc1cnccc1C(=O)NC(C)C1CCN(C(=O)[C@H](C)N)CC1 (stereo partly drawn) [compound 254, N-(1-(1-(L-alanyl)piperidin-4-yl)ethyl)-3-methylisonicotinamide] | > 100 µM
Cc1ccc(C(=O)NC(C)C2CCN(C(=O)[C@H](C)N)CC2)cn1 (stereo partly drawn) [compound 257, N-(1-(1-(L-alanyl)piperidin-4-yl)ethyl)-6-methylnicotinamide] | > 100 µM
Cc1nscc1C(=O)NC(C)C1CCN(C(=O)[C@H](C)N)CC1 (stereo partly drawn) [compound 258, N-(1-(1-(L-alanyl)piperidin-4-yl)ethyl)-3-methylisothiazole-4-carboxamide] | > 100 µM
CC(NC(=O)c1ccn(C)n1)C1CCN(C(=O)[C@H](C)N)CC1 (stereo partly drawn) [compound 259, N-(1-(1-(L-alanyl)piperidin-4-yl)ethyl)-1-methyl-1H-pyrazole-3-carboxamide] | > 100 µM
CC(NC(=O)c1cc(C(C)(C)C)nn1C)C1CCN(C(=O)[C@H](C)N)CC1 (stereo partly drawn) [compound 260, N-(1-(1-(L-alanyl)piperidin-4-yl)ethyl)-3-(tert-butyl)-1-methyl-1H-pyrazole-5-carboxamide] | > 100 µM
COc1cncc(C(=O)NC(C)C2CCN(C(=O)[C@H](C)N)CC2)n1 (stereo partly drawn) [compound 261, N-(1-(1-(L-alanyl)piperidin-4-yl)ethyl)-6-methoxypyrazine-2-carboxamide] | > 100 µM
CC(NC(=O)[C@H]1CC[C@H](N)CC1)C1CCN(C(=O)[C@H](C)N)CC1 (stereo partly drawn) [compound 262, (1r,4S)-N-(1-(1-(L-alanyl)piperidin-4-yl)ethyl)-4-aminocyclohexane-1-carboxamide] | > 100 µM
CC(NC(=O)c1ccc(Cl)cc1C(F)(F)F)C1CCN(C(=O)[C@H](C)N)CC1 (stereo partly drawn) [compound 263, N-(1-(1-(L-alanyl)piperidin-4-yl)ethyl)-4-chloro-2-(trifluoromethyl)benzamide] | > 100 µM
NCCC(=O)N[C@H]1CC[C@H](NC(=O)c2cc[n+]([O-])cc2)CC1 [compound 264, 4-(((1r,4r)-4-(3-aminopropanamido)cyclohexyl)carbamoyl)pyridine 1-oxide] | > 100 µM
CC(NC(=O)c1cccc(F)n1)C1CCN(C(=O)[C@H](C)N)CC1 (stereo partly drawn) [compound 265, N-(1-(1-(L-alanyl)piperidin-4-yl)ethyl)-6-fluoropicolinamide] | > 100 µM
CC(NC(=O)c1cccc2c1OC(F)(F)O2)C1CCN(C(=O)[C@H](C)N)CC1 (stereo partly drawn) [compound 266, N-(1-(1-(L-alanyl)piperidin-4-yl)ethyl)-2,2-difluorobenzo[d][1,3]dioxole-4-carboxamide] | > 100 µM
CC(NC(=O)c1ccncc1F)C1CCN(C(=O)[C@H](C)N)CC1 (stereo partly drawn) [compound 267, N-(1-(1-(L-alanyl)piperidin-4-yl)ethyl)-3-fluoroisonicotinamide] | > 100 µM
CC(NC(=O)c1c[nH]c2ccccc12)C1CCN(C(=O)[C@H](C)N)CC1 (stereo partly drawn) [compound 268, N-(1-(1-(L-alanyl)piperidin-4-yl)ethyl)-1H-indole-3-carboxamide] | > 100 µM
N[C@H]1CC[C@H](NC(=O)c2ncccn2)CC1 [compound 269, N-((1r,4r)-4-aminocyclohexyl)pyrimidine-2-carboxamide] | > 100 µM
NCCC(=O)N[C@H]1CC[C@H](NC(=O)c2ccc(O)nn2)CC1 [compound 270] | > 100 µM
N[C@H]1CC[C@H](NC(=O)c2ccc(O)nn2)CC1 [compound 271, N-((1r,4r)-4-aminocyclohexyl)-6-hydroxypyridazine-3-carboxamide] | > 100 µM
Cc1c(C(=O)N[C@H]2CC[C@H](N)CC2)nnn1-c1ccccc1 [compound 273, N-((1r,4r)-4-aminocyclohexyl)-5-methyl-1-phenyl-1H-1,2,3-triazole-4-carboxamide] | > 100 µM
Cc1cc(C)c(C(=O)NC(C)C2CCN(C(=O)[C@H](C)N)CC2)c(=O)[nH]1 (stereo partly drawn) [compound 274, N-(1-(1-(L-alanyl)piperidin-4-yl)ethyl)-4,6-dimethyl-2-oxo-1,2-dihydropyridine-3-carboxamide] | > 100 µM
Cn1ncc2ccc(C(=O)N[C@H]3CC[C@H](N)CC3)cc21 [compound 275, N-((1r,4r)-4-aminocyclohexyl)-1-methyl-1H-indazole-6-carboxamide] | > 100 µM
COc1ccc2cc(C(=O)N[C@H]3CC[C@H](N)CC3)ccc2c1 [compound 276, N-((1r,4r)-4-aminocyclohexyl)-6-methoxy-2-naphthamide] | > 100 µM
N[C@H]1CC[C@H](NC(=O)c2cc(=O)c3ccccc3o2)CC1 [compound 277, N-((1r,4r)-4-aminocyclohexyl)-4-oxo-4H-chromene-2-carboxamide] | > 100 µM
N[C@H]1CC[C@H](NC(=O)c2ccc(-n3cnnc3)cc2)CC1 [compound 278, N-((1r,4r)-4-aminocyclohexyl)-4-(4H-1,2,4-triazol-4-yl)benzamide] | > 100 µM
CC(NC(=O)c1ccc2[nH]ccc2c1)C1CCN(C(=O)[C@H](C)N)CC1 (stereo partly drawn) [compound 283, N-(1-(1-(L-alanyl)piperidin-4-yl)ethyl)-1H-indole-5-carboxamide] | > 100 µM
CC(NC(=O)c1ccc2c(c1)OC(F)(F)O2)C1CCN(C(=O)[C@H](C)N)CC1 (stereo partly drawn) [compound 284, N-(1-(1-(L-alanyl)piperidin-4-yl)ethyl)-2,2-difluorobenzo[d][1,3]dioxole-5-carboxamide] | > 100 µM
N[C@H]1CC[C@H](NC(=O)c2ccc3c(c2)no[n+]3[O-])CC1 [compound 286, 5-(((1r,4r)-4-aminocyclohexyl)carbamoyl)benzo[c][1,2,5]oxadiazole 1-oxide] | > 100 µM

Second part, the molecule after the results:

IC50 | SMILES
82.9 µM | CC(NC(=O)CCCn1ccnc1)C1CCN(C(=O)[C@H](C)N)CC1 (stereo partly drawn) [compound 241, N-(1-(1-(L-alanyl)piperidin-4-yl)ethyl)-4-(1H-imidazol-1-yl)butanamide]
> 100 µM | N[C@H]1CC[C@H](NC(=O)c2cc3cc(F)ccc3[nH]2)CC1 [compound 242, N-((1r,4r)-4-aminocyclohexyl)-5-fluoro-1H-indole-2-carboxamide]
72.9 µM | CC(NC(=O)c1nc2ccccc2[nH]1)C1CCN(C(=O)[C@H](C)N)CC1 (stereo partly drawn) [compound 243, N-(1-(1-(L-alanyl)piperidin-4-yl)ethyl)-1H-benzo[d]imidazole-2-carboxamide]
> 100 µM | CC(NC(=O)c1cc2ccccc2n1C)C1CCN(C(=O)[C@H](C)N)CC1 (stereo partly drawn) [compound 244, N-(1-(1-(L-alanyl)piperidin-4-yl)ethyl)-1-methyl-1H-indole-2-carboxamide]
> 100 µM | Cn1c(C(=O)N[C@H]2CC[C@H](NC(=O)CCN)CC2)cc2ccccc21 [compound 245, N-((1r,4r)-4-(3-aminopropanamido)cyclohexyl)-1-methyl-1H-indole-2-carboxamide]
> 100 µM | Cn1c(C(=O)N[C@H]2CC[C@H](N)CC2)cc2ccccc21 [compound 246, N-((1r,4r)-4-aminocyclohexyl)-1-methyl-1H-indole-2-carboxamide]
> 100 µM | CC(NC(=O)c1cnccc1N)C1CCN(C(=O)[C@H](C)N)CC1 (stereo partly drawn) [compound 247, N-(1-(1-(L-alanyl)piperidin-4-yl)ethyl)-4-aminonicotinamide]
> 100 µM | CC(NC(=O)c1cccc2[nH]ccc12)C1CCN(C(=O)[C@H](C)N)CC1 (stereo partly drawn) [compound 248, N-(1-(1-(L-alanyl)piperidin-4-yl)ethyl)-1H-indole-4-carboxamide]
65.9 µM | CC(NC(=O)c1ccnc(O)c1)C1CCN(C(=O)[C@H](C)N)CC1 (stereo partly drawn) [compound 249, N-(1-(1-(L-alanyl)piperidin-4-yl)ethyl)-2-hydroxyisonicotinamide]
> 100 µM | CC(NC(=O)c1ccnc(O)c1)C1CCN(C(=O)[C@H](C)N)CC1 (stereo partly drawn) [compound 250, N-(1-(1-(L-alanyl)piperidin-4-yl)ethyl)-2-hydroxyisonicotinamide]
> 100 µM | N[C@H]1CC[C@H](NC(=O)c2ccccn2)CC1 [compound 251, N-((1r,4r)-4-aminocyclohexyl)picolinamide]
37.4 µM | NCCC(=O)N[C@H]1CC[C@H](NC(=O)c2cnccn2)CC1 [compound 252, N-((1r,4r)-4-(3-aminopropanamido)cyclohexyl)pyrazine-2-carboxamide]
64.9 µM | CC(NC(=O)c1nccn1C)C1CCN(C(=O)[C@H](C)N)CC1 (stereo partly drawn) [compound 253, N-(1-(1-(L-alanyl)piperidin-4-yl)ethyl)-1-methyl-1H-imidazole-2-carboxamide]
73.4 µM | Cc1ccncc1C(=O)NC(C)C1CCN(C(=O)[C@H](C)N)CC1 (stereo partly drawn) [compound 255, N-(1-(1-(L-alanyl)piperidin-4-yl)ethyl)-4-methylnicotinamide]
61.6 µM | Cc1cncc(C(=O)NC(C)C2CCN(C(=O)[C@H](C)N)CC2)c1 (stereo partly drawn) [compound 256, N-(1-(1-(L-alanyl)piperidin-4-yl)ethyl)-5-methylnicotinamide]
37.2 µM | NCCC(=O)N[C@H]1CC[C@H](NC(=O)c2ccc3cc[nH]c3c2)CC1 [compound 272, N-((1r,4r)-4-(3-aminopropanamido)cyclohexyl)-1H-indole-6-carboxamide]
43.6 µM | NCCC(=O)N[C@H]1CC[C@H](NC(=O)c2ccc(N3CCCC3)cc2)CC1 [compound 279, N-((1r,4r)-4-(3-aminopropanamido)cyclohexyl)-4-(pyrrolidin-1-yl)benzamide]
48 µM | N[C@H]1CC[C@H](NC(=O)c2ccc(N3CCCC3)cc2)CC1 [compound 280, N-((1r,4r)-4-aminocyclohexyl)-4-(pyrrolidin-1-yl)benzamide]
29 µM | NCCC(=O)N[C@H]1CC[C@H](NC(=O)c2ccc3ncsc3c2)CC1 [compound 281, N-((1r,4r)-4-(3-aminopropanamido)cyclohexyl)benzo[d]thiazole-6-carboxamide]
69.1 µM | N[C@H]1CC[C@H](NC(=O)c2ccc3c(c2)OC(F)(F)O3)CC1 [compound 285, N-((1r,4r)-4-aminocyclohexyl)-2,2-difluorobenzo[d][1,3]dioxole-5-carboxamide]
